lnK data for 3 molecules are collected here from publication PMC10380446, “The Electronic Effects of 3-Methoxycarbonylcoumarin Substituents on Spectral, Antioxidant, and Protein Binding Properties” (International Journal of Molecular Sciences, 2023).

For this assay, the target named is T1, bovine serum albumin (BSA) (Bos taurus, UniProt P02769).
T1 construct: gene ALB; mature secreted protein
Briefly: tryptophan fluorescence quenching, excitation […] nm. The format is binding. Particulars: double-log, natural logarithm of K, PBS, 300 K.

Molecules are shown by their SMILES.

T1 sequence (P02769 25-607): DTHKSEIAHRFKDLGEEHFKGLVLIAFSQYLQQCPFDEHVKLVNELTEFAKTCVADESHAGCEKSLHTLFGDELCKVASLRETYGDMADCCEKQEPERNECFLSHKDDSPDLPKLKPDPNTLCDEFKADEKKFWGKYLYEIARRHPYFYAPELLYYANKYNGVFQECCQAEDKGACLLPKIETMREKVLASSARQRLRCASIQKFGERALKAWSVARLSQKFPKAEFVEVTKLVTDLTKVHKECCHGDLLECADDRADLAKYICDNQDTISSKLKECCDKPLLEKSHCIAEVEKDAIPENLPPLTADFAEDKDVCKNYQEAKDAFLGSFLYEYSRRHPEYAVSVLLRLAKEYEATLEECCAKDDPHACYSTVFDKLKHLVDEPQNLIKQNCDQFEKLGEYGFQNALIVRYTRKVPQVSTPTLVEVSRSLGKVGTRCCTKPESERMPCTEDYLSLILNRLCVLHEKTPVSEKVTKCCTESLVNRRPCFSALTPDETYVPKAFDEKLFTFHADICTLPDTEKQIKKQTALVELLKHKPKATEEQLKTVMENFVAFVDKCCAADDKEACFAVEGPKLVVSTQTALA

As to `COC(=O)c1cc2cc(Br)ccc2oc1=O` [6-Br], the lnK is listed as 9.78 ln (M^-1 not printed). The same measure, in the same setting: under `COC(=O)c1cc2cc([N+](=O)[O-])ccc2oc1=O` [6-NO2] stands 9.03 ln (M^-1 not printed). Consider `COC(=O)c1cc2cc(OC)ccc2oc1=O` [6-OMe], for which the lnK (covalent (suspected by the authors from new 480 nm peak), unreliable) is 12.62 ln (M^-1 not printed).
